Like-named read-outs stand apart in the source and are kept apart here.
Tests used:
[1] = In vivo pharmacokinetic interaction study in rats (plasma); set-up: species or system rat; details: for AUC(0-inf) / AUC(0-t) / Cmax / MRT / Tmax / half-life / CL renal: male, Sprague-Dawley, rat, po, 2 mg/kg, oral amifampridine 2 mg/kg; for AUC(0-inf) / AUC(0-t) / Cmax / MRT / Tmax / half-life: plasma; for CL renal: urine and plasma, renal clearance
Method: Male Sprague Dawley (SD) rats (7–8 weeks old, 260–330 g) were purchased from Orient Bio, Inc. (Seongnam, Korea). The rats were housed under a light/dark cycle for 12 h and were left for at least a week before the experiment to adapt to the laboratory environment. Water and food were provided ad libitum. The rats were fasted overnight with free access to water prior to pharmacokinetic studies. The protocols for animal experiments were approved in accordance with the Guidelines for Animal Care and Use of Gachon University (approval no.: GIACUC-R2021006; 13 May 2021).
The rats were anesthetized with a mixture of Rompun and Zoletil by intramuscular injection and received an intraperitoneal injection of vehicle (40:60 PEG400:normal saline; n = 8) or 100 mg/kg acetaminophen (n = 8). After 10 min, 2 mg/kg amifampridine (dissolved in saline) was administered orally. Blood samples were collected at 0, 5, 15, 30, 60, 90, 120, 240, and 360 min and centrifuged at 14,000 rpm for 15 min at 4 °C. For analysis of amifampridine and 3-N-acetylamifampridine, 50 μL of plasma samples was mixed with 100 μL IS solution (5 ng/mL ondansetron in acetonitrile) and the mixture was vortexed followed by centrifugation at 14,000 rpm for 15 min at 4 °C. For the analysis of acetaminophen, 200 μL of IS (tolbutamide 200 ng/mL in methanol) was added to the plasma samples which were diluted 10-fold using the blank plasma and then vortexed for one minute. Further, the samples were centrifuged at 14,000 rpm for 15 min at 4 °C. The supernatants were transferred to LC vials for quantification.
Non-compartment analysis (NCA) was performed to calculate the pharmacokinetic parameters for the in vivo study using WinNonlin (Version 8.3. (Pharsight Corporation, Mountain View, CA, USA)). The area under the plasma concentration–time curve from time 0 to infinity (AUCinf) was calculated by the linear trapezoidal method and standard extrapolation using λ, where λ represents the slope of the terminal phase in a semi-log graph for plasma concentration–time profiles. Renal clearance (CLr) was determined by dividing the accumulated amount of drug excreted in the urine by AUCinf.

[2] = Urinary excretion of amifampridine and 3-N-acetylamifampridine in rats; format: in vivo, rat; details: for amount excreted into the urine for up to 4 h: oral amifampridine 2 mg/kg
Method: Urine samples were collected at intervals of 0–4, 4–8, and 8–24 h after the administration of amifampridine to control and acetaminophen-treated rats (n = 6), as described above, and were diluted 500-fold with potassium phosphate buffer. An amount of 200 μL of IS was then added to the samples and vortexed for a minute. After centrifugation at 14,000 rpm for 15 min at 4 °C, the supernatant was transferred into vials for quantification of amifampridine and 3-N-acetylamifampridine.

[3] = Tissue distribution of amifampridine and 3-N-acetylamifampridine in rats; format: in vivo, rat; details: rat, 60 min after oral amifampridine 2 mg/kg
Method: To investigate the effects of acetaminophen on the tissue distribution of amifampridine and 3-N-acetylamifampridine, rats were sacrificed at 60 min after administration of amifampridine in control and acetaminophen-treated rats (n = 6) as mentioned above, and the tissues, including liver, kidney, heart, lungs, spleen, brain, and muscle tissues, were obtained. Tissue samples were homogenized using a Wheaton^TM Dounce tissue grinder (Wheaton Millipore, Billerica, MA, USA) after adding a three-fold volume of PBS. An amount of 100 μL of tissue homogenates was transferred to the tube and 200 μL of IS solution was then added and vortexed followed by centrifugation at 14,000 rpm for 15 min at 4 °C. The supernatants were transferred to LC vials for quantification. For muscle samples, the supernatant was concentrated using a desiccator and reconstituted with the mobile phase solvent.

[4] = humans, cited from earlier work
[5] = set-up: method as in earlier work; details: metabolite of amifampridine; cited from earlier work
[6] = acetaminophen-treated group (100 mg/kg ip)

## CC(=O)Nc1cnccc1N [3-N-acetylamifampridine]
[1]; acetaminophen-treated vs control rats
  change of AUCinf after pre-treatment with acetaminophen: not significantly altered
[1]; after pre-treatment with acetaminophen vs control, p < 0.05
  decrease in Cmax: 27.11%
[1]; after pretreatment with acetaminophen
  decrease of AUCm/AUCp: 65%
[1]; [6]
  AUC(0-inf): 3690 ng·h/mL
  AUC(0-t): 3010 ng·h/mL
  Cmax: 880 ± 260 ng/mL
  MRT: 3.84 h
  Tmax: 1.5 h
  half-life: 2.38 ± 0.91 h
  CL renal: 3.58 ± 0.6 mL/min
[1]; control group
  AUC(0-inf): 3690 ng·h/mL
  AUC(0-t): 3410 ng·h/mL
  Cmax: 1210 ± 240 ng/mL
  MRT: 2.65 h
  Tmax: 1.31 h
  half-life: 1.42 ± 0.36 h
  CL renal: 2.94 ± 1.55 mL/min
[2]; control vs acetaminophen-treated rats
  total amount excreted via urine for up to 24 h, difference between groups: not significantly different
[2]; after pre-treatment with acetaminophen
  amount excreted into the urine for up to 4 h: 12.2%
[2]; control rats
  amount excreted into the urine for up to 4 h: 49.9%
[3]; Sprague Dawley, brain, acetaminophen 100 mg/kg, read-out: Tissue partition coefficient (Kp), Brain
  Kp at 1 h: 0.2 ± 0.2
[3]; Sprague Dawley, brain, control, read-out: Tissue partition coefficient (Kp), Brain
  Kp at 1 h: 0.2 ± 0.2
[3]; Sprague Dawley, heart, acetaminophen 100 mg/kg, read-out: Tissue partition coefficient (Kp), Heart
  Kp at 1 h: 1.6 ± 0.4
[3]; Sprague Dawley, heart, control, read-out: Tissue partition coefficient (Kp), Heart
  Kp at 1 h: 1.8 ± 0.5
[3]; Sprague Dawley, lungs, acetaminophen 100 mg/kg, read-out: Tissue partition coefficient (Kp), Lungs
  Kp at 1 h: 2.7 ± 0.9
[3]; Sprague Dawley, lungs, control, read-out: Tissue partition coefficient (Kp), Lungs
  Kp at 1 h: 2.9 ± 0.5
[3]; Sprague Dawley, spleen, acetaminophen 100 mg/kg, read-out: Tissue partition coefficient (Kp), Spleen
  Kp at 1 h: 3 ± 0.9
[3]; Sprague Dawley, spleen, control, read-out: Tissue partition coefficient (Kp), Spleen
  Kp at 1 h: 3.3 ± 0.7
[3]; male, Sprague-Dawley, kidney, acetaminophen 100 mg/kg, read-out: Tissue partition coefficient (Kp), Kidney
  Kp at 1 h: 5.1 ± 1.6
[3]; male, Sprague-Dawley, kidney, control, read-out: Tissue partition coefficient (Kp), Kidney
  Kp at 1 h: 16.6 ± 12.4
[3]; male, Sprague-Dawley, liver, acetaminophen 100 mg/kg, read-out: Tissue partition coefficient (Kp), Liver
  Kp at 1 h: 3 ± 0.8
[3]; male, Sprague-Dawley, liver, control, read-out: Tissue partition coefficient (Kp), Liver
  Kp at 1 h: 6.5 ± 5
[3]; male, Sprague-Dawley, muscle, acetaminophen 100 mg/kg, read-out: Tissue partition coefficient (Kp), Muscle
  Kp at 1 h: 0.9 ± 0.3
[3]; male, Sprague-Dawley, muscle, control, read-out: Tissue partition coefficient (Kp), Muscle
  Kp at 1 h: 0.9 ± 0.2
[4]; after administration of amifampridine
  dose excreted via the urine within 24 h: 74.0–81.7%
[4]
  elimination half-life: ~4 h
[5]
  pharmacological activity: pharmacologically inactive
